# Reference: patent US20120309750A1, “5-MEMBERED HETEROCYCLE DERIVATIVES AND MANUFACTURING PROCESS THEREOF” (ILDONG PHARM CO., LTD., priority 2010, published 2012)
# Assays:
# [1] = tested on: human colorectal cancer cells (HCT116); experiment: Growth inhibition assay (cytotoxicity) in HCT116; format: cell-based; conditions: HCT-116
# Procedure: (§1) For present invention, the ATPase activity of yeast HSP90 was measured using malachite green assay. Formula I compounds for primary antitumoral activity were treated in human colorectal cancer cells (HCT116) showing increased expression levels of HSP90 client protein and cotoxicity IC50 values was measured as a result.
# [2] = biological target: yeast HSP90 (Saccharomyces cerevisiae, UniProt P02829); experiment: Hsp90 ATPase assay (malachite green); format: biochemical
# Procedure: as §1
# Chain of yeast HSP90 (P02829 whole entry): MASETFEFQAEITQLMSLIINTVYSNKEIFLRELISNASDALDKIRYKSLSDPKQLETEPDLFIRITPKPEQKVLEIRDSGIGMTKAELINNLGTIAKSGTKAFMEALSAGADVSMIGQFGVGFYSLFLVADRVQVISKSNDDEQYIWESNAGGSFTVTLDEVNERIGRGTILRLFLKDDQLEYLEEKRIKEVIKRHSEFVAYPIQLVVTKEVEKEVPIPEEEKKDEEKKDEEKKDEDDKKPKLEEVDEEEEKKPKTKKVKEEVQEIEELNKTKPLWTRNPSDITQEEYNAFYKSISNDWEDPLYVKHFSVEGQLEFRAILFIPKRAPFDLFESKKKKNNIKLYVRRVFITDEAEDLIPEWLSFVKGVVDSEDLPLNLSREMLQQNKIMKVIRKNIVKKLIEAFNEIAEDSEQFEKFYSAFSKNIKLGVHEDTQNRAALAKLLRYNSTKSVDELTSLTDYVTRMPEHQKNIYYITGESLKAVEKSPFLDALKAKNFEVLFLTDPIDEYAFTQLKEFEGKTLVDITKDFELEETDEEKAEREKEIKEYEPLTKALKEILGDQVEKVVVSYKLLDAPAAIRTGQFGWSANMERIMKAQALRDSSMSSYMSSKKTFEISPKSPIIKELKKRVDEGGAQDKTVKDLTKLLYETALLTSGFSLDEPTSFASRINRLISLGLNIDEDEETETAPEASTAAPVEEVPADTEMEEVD
IC50 [2] [nM],Structure (SMILES),IC50 [1] [nM]
< 500,"CCNC(=O)c1noc(-c2cc(C(C)C)c(O)cc2O)c1-c1noc(C(=O)N(C)C)n1 [Compound I-64, 3-(5-(2,4-Dihydroxy-5-isopropylphenyl)-3-(ethylcarbamoyl)isoxazol-4-yl)-N,N-dimethyl-1,2,4-oxadiazole-5-carboxamide]",< 500
< 500,"CCNC(=O)c1noc(-c2cc(C(C)C)c(O)cc2O)c1-c1cc(C(=O)NC)no1 [Compound I-56, 5-(2,4-Dihydroxy-5-isopropylphenyl)-N^3-ethyl-N^3′-methyl-4,5′-biisoxazole-3,3′-dicarboxamide]",< 500
< 500,"CCNC(=O)c1noc(-c2cc(C(C)C)c(O)cc2O)c1-c1noc(SC)n1 [Compound I-87, 5-(2,4-Dihydroxy-5-isopropylphenyl)-N-ethyl-4-(5-(methylthio)-1,2,4-oxadiazol-3-yl)isoxazole-3-carboxamide]",500 to 1000
500 to 1000,"CCNC(=O)c1nc(-c2c(C(=O)NCC)noc2-c2cc(C(C)C)c(O)cc2O)no1 [Compound I-59, 3-(5-(2,4-Dihydroxy-5-isopropylphenyl)-3-(ethylcarbamoyl)isoxazol-4-yl)-N-ethyl-1,2,4-oxadiazole-5-carboxamide]",< 500
500 to 1000,"CCNC(=O)c1noc(-c2cc(C(C)C)c(O)cc2O)c1-c1noc(C(=O)N2CCOCC2)n1 [Compound I-67, 5-(2,4-Dihydroxy-5-isopropylphenyl)-N-ethyl-4-(5-(morpholine-4-carbonyl)-1,2,4-oxadiazol-3-yl)isoxazole-3-carboxamide]",500 to 1000
< 500,"CCNCc1cc(-c2c(C(=O)NCC)noc2-c2cc(C(C)C)c(O)cc2O)on1 [Compound I-27, 5-(2,4-Dihydroxy-5-isopropylphenyl)-N-ethyl-3′-((ethylamino)methyl)-4,5′-biisoxazole-3-carboxamide]",< 500
500 to 1000,"CCNC(=O)c1noc(-c2cc(C(C)C)c(O)cc2O)c1-c1noc(C(F)(F)F)n1 [Compound I-57, 5-(2,4-Dihydroxy-5-isopropylphenyl)-N-ethyl-4-(5-(trifluoromethyl)-1,2,4-oxadiazol-3-yl)isoxazole-3-carboxamide]",< 500
500 to 1000,"CCNC(=O)c1noc(-c2cc(C(C)C)c(O)cc2O)c1-c1noc(C(=O)N2CCCC2)n1 [Compound I-68, 5-(2,4-Dihydroxy-5-isopropylphenyl)-N-ethyl-4-(5-(pyrrolidine-1-carbonyl)-1,2,4-oxadiazol-3-yl)isoxazole-3-carboxamide]",< 500
< 500,"CCNC(=O)c1noc(-c2cc(C(C)C)c(O)cc2O)c1-c1noc(C(C)C)n1 [Compound I-65, 5-(2,4-Dihydroxy-5-isopropylphenyl)-N-ethyl-4-(5-isopropyl-1,2,4-oxadiazol-3-yl)isoxazole-3-carboxamide]",< 500
500 to 1000,"CCNC(=O)c1noc(-c2cc(C(C)C)c(O)cc2O)c1-c1noc([C@H](C)O)n1 [Compound I-83, (S)-5-(2,4-Dihydroxy-5-isopropylphenyl)-N-ethyl-4-(5-(1-hydroxyethyl)-1,2,4-oxadiazol-3-yl)isoxazole-3-carboxamide]",< 500
500 to 1000,"CCNC(=O)c1noc(-c2cc(C(C)C)c(O)cc2O)c1-c1noc(C(=O)N(CC)CC)n1 [Compound I-74, 3-(5-(2,4-Dihydroxy-5-isopropylphenyl)-3-(ethylcarbamoyl)isoxazol-4-yl)-N,N-diethyl-1,2,4-oxadiazole-5-carboxamide]",500 to 1000
500 to 1000,"CCNC(=O)c1noc(-c2cc(C(C)C)c(O)cc2O)c1-c1noc(CN(C)C)n1 [Compound I-93, 5-(2,4-Dihydroxy-5-isopropylphenyl)-4-(5-((dimethylamino)methyl)-1,2,4-oxadiazol-3-yl)-N-ethylisoxazole-3-carboxamide]",< 500

# Continued, molecule first:
Structure (SMILES),IC50 [2] [nM],IC50 [1] [nM]
"CCNC(=O)c1noc(-c2cc(C(C)C)c(O)cc2O)c1-c1nnnn1C [Compound I-11, 5-(2,4-Dihydroxy-5-isopropylphenyl)-N-ethyl-4-(1-methyl-1H-tetrazol-5-yl)isoxazole-3-carboxamide]",< 500,< 500
"CCNC(=O)c1noc(-c2cc(C(C)C)c(O)cc2O)c1-c1cc(CN)no1 [Compound I-30, 3′-(Aminomethyl)-5-(2,4-dihydroxy-5-isopropylphenyl)-N-ethyl-4,5′-biisoxazole-3-carboxamide]",500 to 1000,< 500
"CCNC(=O)c1noc(-c2cc(C(C)C)c(O)cc2O)c1-c1cc(CNCCO)no1 [Compound I-22, 5-(2,4-Dihydroxy-5-isopropylphenyl)-N-ethyl-3′-((2-hydroxyethylamino)methyl)-4,5′-biisoxazole-3-carboxamide]",500 to 1000,< 500
"CCNC(=O)c1noc(-c2cc(C(C)C)c(O)cc2O)c1-c1cc(C#N)no1 [Compound I-48, 3′-Cyano-5-(2,4-dihydroxy-5-isopropylphenyl)-N-ethyl-4,5′-biisoxazole-3-carboxamide]",500 to 1000,< 500
"CCNC(=O)c1noc(-c2cc(C(C)C)c(O)cc2O)c1-c1cc(/C=N/OC)no1 [Compound I-52, 5-(2,4-Dihydroxy-5-isopropylphenyl)-N-ethyl-3′-((methoxyimino)methyl)-4,5′-biisoxazole-3-carboxamide]",< 500,< 500
"CCNC(=O)c1noc(-c2cc(C(C)C)c(O)cc2O)c1-c1cn[nH]c1 [Compound I-103, 5-(2,4-Dihydroxy-5-isopropylphenyl)-N-ethyl-4-(1H-pyrazol-4-yl)isoxazole-3-carboxamide]",< 500,< 500
"CCC(=O)NCc1noc(-c2cc(C(C)C)c(O)cc2O)c1-c1ccsc1 [Compound I-4, N-((5-(2,4-Dihydroxy-5-isopropylphenyl)-4-(thiophen-3-yl)isoxazol-3-yl)methyl)propionamide]",> 1000,> 1000
"CCNC(=O)c1noc(-c2cc(C(C)C)c(O)cc2O)c1-c1cc(COCC(=O)O)no1 [Compound I-33, 2-((5-(2,4-Dihydroxy-5-isopropylphenyl)-3-(ethylcarbamoyl)-4,5′-biisoxazol-3′-yl)methoxy)acetic acid]",> 1000,> 1000
"CCNC(=O)c1noc(-c2cc(C(C)C)c(O)cc2O)c1-c1noc(-c2ccc([N+](=O)[O-])cc2)n1 [Compound I-85, 5-(2,4-Dihydroxy-5-isopropylphenyl)-N-ethyl-4-(5-(4-nitrophenyl)-1,2,4-oxadiazol-3-yl)isoxazole-3-carboxamide]",< 500,< 500
"CCNC(=O)c1noc(-c2cc(C(C)C)c(O)cc2O)c1-c1noc(-c2ccc(OC)cc2)n1 [Compound I-84, 5-(2,4-Dihydroxy-5-isopropylphenyl)-N-ethyl-4-(5-(4-methoxyphenyl)-1,2,4-oxadiazol-3-yl)isoxazole-3-carboxamide]",500 to 1000,500 to 1000
"CCNC(=O)c1noc(-c2cc(C(C)C)c(O)cc2O)c1-c1cc(/C=N/OCC)no1 [Compound I-55, 5-(2,4-Dihydroxy-5-isopropylphenyl)-3′-((ethoxyimino)methyl)-N-ethyl-4,5′-biisoxazole-3-carboxamide]",500 to 1000,< 500
"CCNC(=O)c1noc(-c2cc(Cl)c(O)cc2O)c1-c1cc(C(=O)OCC)no1 [Compound I-25, Ethyl 5-(5-chloro-2,4-dihydroxyphenyl)-3-(ethylcarbamoyl)-4,5′-biisoxazole-3′-carboxylate]",500 to 1000,> 1000
"CCNC(=O)c1noc(-c2cc(C(C)C)c(O)cc2O)c1-c1cc(C(=O)N2CCOCC2)no1 [Compound I-23, 5-(2,4-Dihydroxy-5-isopropylphenyl)-N-ethyl-3′-(morpholine-4-carbonyl)-4,5′-biisoxazole-3-carboxamide]",500 to 1000,< 500
"CCNC(=O)c1noc(-c2cc(C(C)C)c(O)cc2O)c1-c1nnn(C)n1 [Compound I-12, 5-(2,4-Dihydroxy-5-isopropylphenyl)-N-ethyl-4-(2-methyl-2H-tetrazol-5-yl)isoxazole-3-carboxamide]",< 500,< 500
"CCNC(=O)c1noc(-c2cc(C(C)C)c(O)cc2O)c1-c1cc(COS(C)(=O)=O)no1 [Compound I-32, (5-(2,4-Dihydroxy-5-isopropylphenyl)-3-(ethylcarbamoyl)-4,5′-biisoxazol-3′-yl)methyl methanesulfonate]",< 500,< 500
"CCNC(=O)c1noc(-c2cc(C(C)C)c(O)cc2O)c1-c1cc(CN2CCN(C)CC2)no1 [Compound I-43, 5-(2,4-Dihydroxy-5-isopropylphenyl)-N-ethyl-3′-((4-methylpiperazin-1-yl)methyl)-4,5′-biisoxazole-3-carboxamide]",500 to 1000,< 500
"CCNC(=O)c1noc(-c2cc(C(C)C)c(O)cc2O)c1-c1cc(-c2ccccc2)no1 [Compound I-49, 5-(2,4-Dihydroxy-5-isopropylphenyl)-N-ethyl-3′-phenyl-4,5′-biisoxazole-3-carboxamide]",500 to 1000,500 to 1000
"CCNC(=O)c1noc(-c2cc(C(C)C)c(O)cc2O)c1-c1cnn(C)c1 [Compound I-102, 5-(2,4-Dihydroxy-5-isopropylphenyl)-N-ethyl-4-(1-methyl-1H-pyrazol-4-yl)isoxazole-3-carboxamide]",< 500,< 500
"CCNC(=O)C1=NOC(c2c(C(=O)NCC)noc2-c2cc(C(C)C)c(O)cc2O)C1 (stereo not shown) [Compound I-8, 5-(2,4-Dihydroxy-5-isopropylphenyl)-N-ethyl-4-(3-(ethylcarbamoyl)-4,5-dihydroisoxazol-5-yl)isoxazole-3-carboxamide]",500 to 1000,< 500
"CCCN(CCC)Cc1cc(-c2c(C(=O)NCC)noc2-c2cc(C(C)C)c(O)cc2O)on1 [Compound I-45, 5-(2,4-Dihydroxy-5-isopropylphenyl)-3′-((dipropylamino)methyl)-N-ethyl-4,5′-biisoxazole-3-carboxamide]",< 500,< 500
